Test [1] concerns the target T1, ATP Dependent Citrate Lyase (Mus musculus, UniProt Q91V92).
T1 construct: 10% homogenates of CF1 male mouse liver; from tissue; host or cells: CF1 male mouse liver, 10% homogenate
T1 sequence (Q91V92 1-1091): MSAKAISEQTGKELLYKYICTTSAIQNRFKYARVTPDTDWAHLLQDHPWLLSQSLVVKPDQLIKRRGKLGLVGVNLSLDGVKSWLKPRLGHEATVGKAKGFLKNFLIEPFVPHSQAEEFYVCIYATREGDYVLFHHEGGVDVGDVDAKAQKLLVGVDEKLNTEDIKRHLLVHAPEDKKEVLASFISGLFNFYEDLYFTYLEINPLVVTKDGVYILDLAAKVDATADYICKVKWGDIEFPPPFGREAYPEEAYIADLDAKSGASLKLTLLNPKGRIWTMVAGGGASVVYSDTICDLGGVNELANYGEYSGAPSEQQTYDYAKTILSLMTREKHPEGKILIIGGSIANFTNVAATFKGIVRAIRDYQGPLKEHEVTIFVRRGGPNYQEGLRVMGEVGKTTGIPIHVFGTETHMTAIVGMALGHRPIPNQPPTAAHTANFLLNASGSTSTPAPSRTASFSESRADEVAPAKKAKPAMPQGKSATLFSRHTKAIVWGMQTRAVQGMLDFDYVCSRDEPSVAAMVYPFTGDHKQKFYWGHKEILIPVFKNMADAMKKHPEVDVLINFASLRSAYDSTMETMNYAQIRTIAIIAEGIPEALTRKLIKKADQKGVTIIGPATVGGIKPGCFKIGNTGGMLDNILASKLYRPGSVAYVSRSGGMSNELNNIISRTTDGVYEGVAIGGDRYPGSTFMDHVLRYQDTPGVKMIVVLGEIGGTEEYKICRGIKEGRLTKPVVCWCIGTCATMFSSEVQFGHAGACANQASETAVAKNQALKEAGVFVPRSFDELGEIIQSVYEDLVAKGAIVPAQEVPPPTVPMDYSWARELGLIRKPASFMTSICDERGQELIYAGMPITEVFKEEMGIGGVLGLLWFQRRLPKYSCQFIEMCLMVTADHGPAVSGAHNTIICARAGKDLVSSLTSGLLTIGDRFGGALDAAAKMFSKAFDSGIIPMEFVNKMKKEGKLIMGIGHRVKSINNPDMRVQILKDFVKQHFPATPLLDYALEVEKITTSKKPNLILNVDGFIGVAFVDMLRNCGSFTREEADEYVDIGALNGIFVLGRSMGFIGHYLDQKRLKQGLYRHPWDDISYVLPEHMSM
The experiment in a line: In vivo liver enzyme study: ATP dependent citrate lyase. The following applies: CF1 liver after 16 days i.p. As for the experimental part: In vitro enzymatic studies were determined using 10% homogenates of CF1 male mouse liver with 50-200 μM of test drugs. In vivo enzymatic studies were determined using 10% homogenates of liver from CF1 male mice obtained after administering the agents for 16 days at a dose ranging from 2.5-20 mg/kg/day intraperitoneally. The liver homogenates for both in vitro and in vivo studies were prepared in 0.25M sucrose and 0.001M (ethylenedinitrilo)tetraacetic acid. Acetyl coenzyme A synthetase and adenosine triphosphate dependent citrate lyase activities were determined spectrophotometrically at 540 nm as the hydroxylamate of acetyl coenzyme A formed after 30 min at 37° C. Mitochondrial citrate exchange was determined by the procedure of Robinson et al [Eur. J. Biochem., 216, 63 (1970)] using ^14 C-sodium bicarbonate (41 mCi/mmol) incorporated into mitochondrial ^14 C-citrate after isolating rat mitochondria (9000 g×10 min) from the homogenates. The exchanges of the ^14 C-citrate were determined after incubating the mitochondrial fraction which was loaded with labeled citrate and test drugs for 10 min. Then the radioactivity was measured in the mitochondrial and supernantant fractions in scintillation fluid and expressed as a percentage. Cholesterol side chain oxidation was determined by the method of Kritchevsky and Tepper [Artherosclerosis, 18, 93 (1973)] using (26-^14 C) cholesterol (50 mCi/mmol) and mitochondria isolated from rat liver homogenates. […] Fatty acid synthetase activity was determined by the method of Brady et al [J. Biol. Chem., 235, 3093 (1960)] using [2-^14 C] malonyl-coenzyme A (37.5 mCi/mmol) which was incorporated into newly synthesized fatty acids that were extracted with ether and counted. Acyl transferase activity was determined with glycerol-3phosphate [L-2-^3 H(N)] […] HCl and counted. Phosphatidate phosphohydrolase activity was measured as the inorganic phosphate released after 30 min from phosphatidic acid by the method of Mavis et al [J. Lipid Res., 19, 467 (1978)]. […]

Another test relates to Holtzman male rats. As to the kind of experiment: Plasma lipoprotein fractions. The test is classed as in vivo, rat. The conditions noted are these: 14 days 10 mg/kg/day orally. As for the experimental part: […] On day 14, blood was collected from the abdominal aorta. Serum was separated from whole blood by centrifugation at 3500 rpm. Aliquots (3 ml) were separated by density gradient ultracentrifugation according to the method of Hatch and Lees [Adv. Lipid Res., 6, 33 (1968)] and Havel et al [J. Clin. Invest., 34, 1395 (1955)] into the chylomicrons,very low density lipoproteins, high density lipoproteins and low density lipoproteins. Each of the fractions was analyzed for cholesterol, triglyceride, neutral lipids, phospholipids and protein levels.
Data are expressed in the Table 2-7 as percent of control ± the standard deviation. The probable significant level (P) between each test group and the control group was determined by the Student's "t" test.

Regarding “{Cu[(CH3)3 N.BH2 CO2 ]2.(CH3)3 N.BH2 COOH} [Compound I]”, the “ATP Dependent Citrate Lyase” value in test [1] (2.5 mg/kg) is reported as 70 ± 6% of control; in test [1] (5.0 mg/kg) it was 79 ± 7% of control; in test [1] (10 mg/kg), 72 ± 7% of control. For the same substance, the Cholesterol with Holtzman male rats (rat serum Chylomicrons) was determined as 88 ± 6 Percent Control; with Holtzman male rats (rat serum HDL), 64 ± 5 Percent Control; in the test on Holtzman male rats (rat serum LDL), 68 ± 6 Percent Control; in the test on Holtzman male rats (rat serum VLDL) it was 32 ± 3 Percent Control. In addition, the “Neutral Lipids” value with Holtzman male rats (rat serum Chylomicrons) turned out to be 67 ± 7 Percent Control; in the test on Holtzman male rats (rat serum HDL), 72 ± 8 Percent Control; with Holtzman male rats (rat serum LDL), 78 ± 7 Percent Control; in the test with Holtzman male rats (rat serum VLDL), 62 ± 5 Percent Control. The Phospholipids in the test on Holtzman male rats (rat serum Chylomicrons) was determined as 96 ± 6 Percent Control; in the test on Holtzman male rats (rat serum HDL) it was 86 ± 7 Percent Control; in the test with Holtzman male rats (rat serum LDL), 105 ± 6 Percent Control; with Holtzman male rats (rat serum VLDL), 100 ± 7 Percent Control. In addition, the Protein is listed as 99 ± 7 Percent Control in the test on Holtzman male rats (rat serum Chylomicrons), 108 ± 8 Percent Control in the test with Holtzman male rats (rat serum HDL), 101 ± 6 Percent Control in the test with Holtzman male rats (rat serum LDL) and 96 ± 7 Percent Control with Holtzman male rats (rat serum VLDL). In addition, the Triglyceride is recorded as 58 ± 5 Percent Control in the test with Holtzman male rats (rat serum Chylomicrons), 31 ± 5 Percent Control in the test on Holtzman male rats (rat serum HDL), 70 ± 6 Percent Control in the test on Holtzman male rats (rat serum LDL) and 43 ± 4 Percent Control in the test with Holtzman male rats (rat serum VLDL).

Values taken from US4550186A, “Binuclear copper (II) carboxylates formed from amine-carboxyboranes” (Duke University, priority 1983, dated 1985).
